Measurements reported in patent US7625887B2, “Receptor agonists” (Takeda Pharmaceutical Company Limited, priority 2003, dated 2009).
Blank lines part the entries; values can stand above or below the molecule they belong to.

What was measured:
[1] = system: mock CHO cells free of human TGR5 expression; assay: cAMP production increasing activity in mock CHO cells free of human TGR5 expression; format: cell-based; conditions: test compounds 2 μM, average of 3 groups
Protocol: (§1) As the assay buffer, Hank's balanced salt solution (HBSS, Invitrogen) supplemented with 0.1% bovine serum albumin (BSA, Sigma) and 0.2 mM 3-isobutyl-1-methylxanthine (IBMX, Sigma) was used. The cells were washed twice with the assay buffer and preincubated at 37° C. for 30 min. The cells were washed twice, and test compound samples (10 μM) diluted with the assay buffer to various concentrations were added. The cells were incubated at 37° C. for 20 min. The culture supernatant was discarded, and the cAMP production amount was measured using a cAMP Screen System (ABI).

human TGR5 [2] = target: T1, human TGR5 (Homo sapiens, UniProt Q8TDU6); assay: cAMP production increasing activity in human TGR5 expressing CHO cells; format: cell-based; conditions: test compound 1 μM, 30 min; 1 μM lithocholic acid = 100%, no addition = 0%; average of 3 groups
T1 construct: expressed in transfected cells; host or cells: CHO cells
T1 sequence (Q8TDU6 1-330): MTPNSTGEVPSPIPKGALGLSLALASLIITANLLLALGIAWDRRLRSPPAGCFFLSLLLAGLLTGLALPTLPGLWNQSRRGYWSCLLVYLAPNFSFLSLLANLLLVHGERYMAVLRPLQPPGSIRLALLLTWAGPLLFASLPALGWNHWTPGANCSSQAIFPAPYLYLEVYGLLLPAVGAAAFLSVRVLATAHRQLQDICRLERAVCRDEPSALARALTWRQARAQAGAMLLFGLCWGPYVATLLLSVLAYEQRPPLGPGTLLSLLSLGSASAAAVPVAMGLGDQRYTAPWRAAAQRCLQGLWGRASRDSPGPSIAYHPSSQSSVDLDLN
Protocol: As the assay buffer, Hank's balanced salt solution (HBSS, Invitrogen) supplemented with 0.1% bovine serum albumin (BSA, Sigma) and 0.5 mM 3-isobutyl-1-methylxanthine (IBMX, Sigma) was used. A test compound sample (1 μM) diluted with the assay buffer was added to the cells. The cells were incubated at 37° C. for 30 min. and the supernatant was suctioned. The intracellular cAMP amount increased by the stimulation of the test compound was quantitatively determined using a HitHunter™ EFC Cyclic AMP Chemiluminescence Assay Kit (ABI) kit.

rabbit TGR5 = target: T2, rabbit TGR5 (Oryctolagus cuniculus, UniProt Q862A8); assay: cAMP production increasing activity in rabbit TGR5 expressing CHO cells; format: cell-based; conditions: Experimental Example 6; 2 μM; 10 μM lithocholic acid = 100%; average of 3 groups
T2 construct: expressed in transfected cells; host or cells: CHO cells
T2 sequence (Q862A8 1-330): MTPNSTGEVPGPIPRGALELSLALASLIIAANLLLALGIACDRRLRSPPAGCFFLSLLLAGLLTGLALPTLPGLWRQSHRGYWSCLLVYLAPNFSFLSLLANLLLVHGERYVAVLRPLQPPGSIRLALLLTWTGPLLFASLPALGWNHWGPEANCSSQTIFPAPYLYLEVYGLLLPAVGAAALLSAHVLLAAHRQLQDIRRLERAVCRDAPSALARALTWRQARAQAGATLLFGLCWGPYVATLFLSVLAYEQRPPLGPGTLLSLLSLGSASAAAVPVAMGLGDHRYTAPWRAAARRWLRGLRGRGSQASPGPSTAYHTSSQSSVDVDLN
Protocol: as §1, with “twice” for “twice,”, “(2” for “(10”, “buffer” for “buffer to various concentrations”

NCI-H716 cells [3] = assay: intracellular cAMP production increasing action in NCI-H716 cells; format: cell-based, human; conditions: 2 hrs, production amount in TLCA (50 μM) was 100%, Base 11
Protocol: NCI-H716 (ATCC) was suspended in a medium (Dulbecco's Modified Eagle Medium (DMEM, Invitrogen) supplemented with 10% fetal bovine serum (Invitrogen), 100 U/ml penicillin and 100 μg/ml streptomycin), seeded in a 96 well plate, cultured for 2 days and used for cAMP production assay. As a cAMP assay buffer, modified Krebs-Ringer bicarbonate buffer (KRBH, 116 mM NaCl, 4.7 mM KCl, 1.2 mM KH2PO4, 1.2 MM MgSO4, 2.5 mM CaCl2, 25 mM NaHCO3, 24 mM HEPES pH 7.3), supplemented with glucose 5.5 mM, bovine serum albumin (BSA) 0.1%, and 3-isobutyl-1-methylxanthine (IBMX, Sigma) 1 mM, was used. The cells were washed once with cAMP assay buffer. Bile acids (50 μM) diluted with cAMP assay buffer or the compounds of the present invention (10 μM) were added thereto and the cells were incubated for 2 hrs. The culture supernatant was discarded, and the cAMP production amount was measured by cAMP Screen System (ABI). In the Table, Base means non-addition of a test compound.

rat TGR5 = target: T3, rat TGR5 (Rattus norvegicus, UniProt Q80T02); assay: cAMP production increasing activity in rat type TGR5 expressing CHO cells; format: cell-based; conditions: 0.5 h, read-out: cAMP producing activity (control %)
T3 construct: expressed in transfected cells; host or cells: CHO cells
T3 sequence (Q80T02 1-329): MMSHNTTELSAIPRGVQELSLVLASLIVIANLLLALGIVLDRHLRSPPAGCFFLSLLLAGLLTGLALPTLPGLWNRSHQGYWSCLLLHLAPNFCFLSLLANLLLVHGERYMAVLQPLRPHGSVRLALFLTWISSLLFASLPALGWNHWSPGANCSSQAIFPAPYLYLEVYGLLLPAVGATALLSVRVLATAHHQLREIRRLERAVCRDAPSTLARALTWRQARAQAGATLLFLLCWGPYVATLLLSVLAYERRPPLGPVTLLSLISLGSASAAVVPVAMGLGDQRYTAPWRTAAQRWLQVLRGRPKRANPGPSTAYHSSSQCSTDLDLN
Protocol: (§2) After culture, the cells were detached with 0.5 mM EDTA/PBS, washed with PBS, and suspended in Buffer 1 (HBSS+0.1% BSA, 25 mM HEPES pH 7.3, 0.5 mM IBMX) at a density of 1×10^7 cells/ml. The obtained cell suspension (460 μl), anti-cAMP acceptor beads (23 μl) of AlphaScreen cAMP assay kit (Perkin Elmer) and Buffer 1 (667 μl) were mixed and dispensed to a white 96 well plate (Costar) by 10 μl. Then, a test compound diluted with Buffer 1 was added to each well by 10 μl. At this time, one row of the plate was free of the cell suspension but added with anti-cAMP acceptor beads (9 μl) and Buffer 1 (441 μl) alone, and serial dilutions of cAMP were added instead of the test compound and used as the standard. A mixture of the cell suspension and the test compound contained in the plate was allowed to react at room temperature for 30 min. […] The plate was shaken at room temperature for 2.5 hrs and fluorescence intensity was measured by Fusion α (Parkin Elmer), and the cAMP concentration of each well was calculated using the cAMP standard on each plate.

guinea pig TGR5 = assay: cAMP production increasing activity in guinea pig TGR5 expressing CHO cells; format: cell-based; conditions: test compound 2 μM; 10 μM lithocholic acid = 100%; average of 3 groups
Protocol: as §2, with “The guinea pig type TGR5 expressing CHO cells were seeded in one 150 cm^2 flask at 1×10^7 cells, and cultured overnight at 37° C., 5% CO2. After” for “After”

human TGR5 [4] = target: T1, human TGR5; assay: cAMP production increasing activity in human TGR5 expressing CHO cells; format: cell-based; conditions: read-out: EC50 value (concentration necessary to make the cAMP production amount 50%)
NCI-H716 cells [5] = assay: GLP-1 secretion from NCI-H716 cell line; format: cell-based, human; conditions: 2 hrs, secretion amount in Base was 100%
Protocol: NCI-H716 cells secrete Glucagon-like peptide-1 (GLP-1). GLP-1 is a peptide useful for controlling blood glucose level because it acts on the pancreas to cause secretion of insulin and the like. In the same manner as in Experimental Example 9, NCI-H716 (ATCC) was seeded in a 96 well plate and, after incubation for 2 days, used for the following secretion test. As a buffer for secretion test, modified Krebs-Ringer bicarbonate buffer (KRBH, 116 mM NaCl, 4.7 mM KCl, 1.2 mM KH2PO4, 1.2 mM MgSO4, 2.5 mM CaCl2, 25 mM NaHCO3, 24 mM HEPES, pH 7.3) supplemented with glucose 5.5 mM and BSA 0.1% was used. The cells were washed once with the buffer for secretion test, preincubated at 37° C. under 5% CO2, bile acid diluted with the buffer for secretion test was added and the cells were cultured at 37° C. under 5% CO2 for 2 hrs. The cell culture supernatant was collected, cryopreserved and the GLP-1 content in the supernatant was measured using a GLP-1 measurement EIA kit (Linco) The results are shown in Table 9. In the Table, Base means non-addition of a test compound.

THP-TGR5 cells = assay: suppression of LPS induced TNF α secretion in THP-TGR5 cells; format: cell-based, human; conditions: bile acid 50 μM, non-addition: 11 with LPS, 2.7 without LPS
Protocol: TGR5 high expression cells were established by introducing TGR5 gene into human macrophage cells line THP-1. According to a conventional method, pcDNA-TGR5 incorporating cDNA of human TGR5 in pcDNA3.1 (Invitrogen) was prepared. Then, THP-1 was cultured in a medium (RPMI1640 10% FBS), and pcDNA-TGR5 was introduced thereinto using lipofectamine (Gibco BRL) according to conventional methods. Thereafter, G418 (Gibco BRL) was added to the medium to select resistant strains, and cells line, THP-TGR5 that expresses TGR5 stably and highly was established.
THP-TGR5 thus obtained was diluted to a concentration of 1×10^5/well and cultured overnight in a 96 well plate in the presence of 10^−8M phorbol ester (Wako Pure Chemical Industries, Ltd.). THP-TGR5 after culture was cultured for 1 hr in a medium containing a test compound or a control medium (0.1 ml) free of a test compound, 0.1 ml of a medium containing the same concentration of the test compound or a control medium free of the test compound, each of which containing LPS for induction of TNF α secretion was added (concentration at the time of addition 50 ng/ml) and the mixture was incubated at 37° C. under 5% CO2 for 14 hrs. The culture supernatant was collected and the TNF α content was measured with the growth suppressing effect on the TNF sensitive cell line L929 (RIKEN Institute) as an index.
L929 cells were seeded in a 96 well plate at 1.2×10^4/well and incubated overnight at 37° C. under 5% CO2. The obtained culture product was cultured overnight in a medium (phenol red free Dulbecco's Modified Eagle Medium (Invitrogen) supplemented with 10% fetal bovine serum (Invitrogen), 100 U/ml penicillin and 100 μg/ml streptomycin), which contained the aforementioned THP-TGR5-containing culture supernatant and 2 μg/ml Actinomycin D (Wako Pure Chemical Industries, Ltd.). The TNF α content was determined by measuring the growth of the L929 cells in the obtained culture product using a Cell Counting Kit-8 (Wako Pure Chemical Industries, Ltd.). As the standard sample, human recombinant TNF α (Genzyme) was used.

cAMP production increasing activity (control %) (human TGR5 [2]): 112 control %
cAMP production increasing activity (control %) (rabbit TGR5): 106 control %
Structure (SMILES): FC(F)(F)c1cc(CN2CCCOc3nccc(-c4ccccc4)c3C2)cc(C(F)(F)F)c1.FC(F)(F)c1cc(CN2CCCOc3nccc(-c4ccccc4)c3C2)cc(C(F)(F)F)c1.O=S(=O)(O)O [Example 18C, 5-[3,5-bis(trifluoromethyl)benzyl]-7-phenyl-3,4,5,6-tetrahydro-2H-pyrido[2,3-b][1,5]oxazocine ½sulfate]
cAMP production increasing activity ([1]; Experimental Example 5, Base 0.19): 0.17 pmol

Structure (SMILES): COC(=O)NCc1cccc(C2OC(CC(=O)NCc3ccccc3F)C(=O)N(CC(C)(C)COC(C)=O)c3ccc(Cl)cc32)c1 (stereo not drawn) [Example 46, 3-[3,5-trans-7-chloro-3-[2-[(2-fluorobenzyl)amino]-2-oxoethyl]-5-[3-(methoxycarbonylaminomethyl)phenyl]-2-oxo-2,3-dihydro-4,1-benzoxazepin-1(5H)-yl]-2,2-dimethylpropyl acetate]
cAMP production increasing activity (%) (NCI-H716 cells [3]; 10 μM): 112%
activation at 2 µM (rat TGR5): 104%
cAMP producing activity (control %) (guinea pig TGR5): 77 control %
EC50 (human TGR5 [4]): < 100 nM
GLP-1 secretion increase (%) (NCI-H716 cells [5]; 5 μM): 165%

cAMP production increasing activity (control %) (human TGR5 [2]): 113 control %
cAMP production increasing activity (control %) (rabbit TGR5): 71.2 control %
Structure (SMILES): CC(C)(C)CN1C(=O)C(CC(=O)NCc2ccccc2F)N(C(=O)c2ccncc2)Cc2ccccc21 (centres unmarked) [Example 1B, N-(2-fluorobenzyl)-2-(4-isonicotinoyl-1-neopentyl-2-oxo-2,3,4,5-tetrahydro-1H-1,4-benzodiazepin-3-yl)acetamide]
cAMP production increasing activity ([1]; Experimental Example 4, Base 0.28): 0.23 pmol

Structure (SMILES): C[C@H](CCC(=O)O)[C@H]1CC[C@H]2[C@@H]3CC[C@@H]4C[C@H](O)CC[C@]4(C)[C@H]3CC[C@]12C [lithocholic acid, reference compound]
cAMP production increasing activity (%) (NCI-H716 cells [3]; bile acid 50 μM): 107%
TNF α (THP-TGR5 cells): 1.1 ng/mL
GLP-1 secretion increase (%) (NCI-H716 cells [5]; bile acid 25 μM): 121%
